According to the supplement of paper PMC6965134:
± gives the standard deviation of the averaged measurements.

Experiment: TIMS collisional cross section (CCS, N2) of the lipid ion; higher = larger ion cross section
Conditions: ionization mode: positive, one isomer drawn

Compound	TIMS collisional cross section (sample type: Liver)	TIMS collisional cross section (sample type: HeLa)	TIMS collisional cross section (sample type: plasma)
CC/C=C\C/C=C\C/C=C\C/C=C\C/C=C\C/C=C\CCC(=O)O[C@H](COC(=O)CCCC/C=C\C/C=C\C/C=C\CCCCC)COP(=O)(O)OCCN [PE 18:3_22:6] (ion (formula + adduct): [C45H72NO8P+H] 1+)	276.7 Å²	–	–
CCCCC/C=C\C/C=C\C/C=C\C/C=C\CCCC(=O)O[C@H](COC(=O)CCCCCCCCCCCCCCCCCC)COP(=O)(O)OCCN [PE 19:0_20:4@] (ion (formula + adduct): [C44H80NO8P+H] 1+)	–	287.3 Å²	–
CCCCC/C=C\C/C=C\CCCCCCCC(=O)O[C@H](COC(=O)CCCCCCCCCCCCCCCCCCC)COP(=O)(O)OCCN [PE 20:0@_18:2] (ion (formula + adduct): [C43H82NO8P+H] 1+)	286.3 Å²	–	–
CCCCC/C=C\C/C=C\C/C=C\C/C=C\CCCC(=O)O[C@H](COC(=O)CCCCCCCCC/C=C\CCCCCCCC)COP(=O)(O)OCCN [PE 20:1_20:4] (ion (formula + adduct): [C45H80NO8P+H] 1+)	287.2 Å²	–	–
CCCCC/C=C\C/C=C\C/C=C\C/C=C\CCCC(=O)O[C@H](COC(=O)CCCCCC/C=C\C/C=C\C/C=C\CCCCC)COP(=O)(O)OCCN [PE 20:3_20:4@] (ion (formula + adduct): [C45H76NO8P+H] 1+)	280.9 Å²	–	–
CCCCC/C=C\C/C=C\C/C=C\C/C=C\CCCC(=O)OC[C@H](COP(=O)(O)OCCN)OC(=O)CCCCCCCCCCCCC [PE 20:4@_14:0] (ion (formula + adduct): [C39H70NO8P+H] 1+)	–	270.2 Å²	–
CCCCC/C=C\C/C=C\C/C=C\C/C=C\CCCC(=O)OC[C@H](COP(=O)(O)OCCN)OC(=O)CCCCCCC/C=C\CCCCCC [PE 20:4_16:1] (ion (formula + adduct): [C41H72NO8P+H] 1+)	272.6 Å²	272.4 Å²	–
CCCCC/C=C\C/C=C\C/C=C\C/C=C\CCCC(=O)OC[C@H](COP(=O)(O)OCCN)OC(=O)CCC/C=C\C/C=C\C/C=C\C/C=C\CCCCC [PE 20:4_20:4] (ion (formula + adduct): [C45H74NO8P+H] 1+)	279.6 Å²	280.6 Å²	–
CC/C=C\C/C=C\C/C=C\C/C=C\C/C=C\CCCC(=O)O[C@H](COC(=O)CCC/C=C\C/C=C\C/C=C\C/C=C\CCCCC)COP(=O)(O)OCCN [PE 20:4_20:5] (ion (formula + adduct): [C45H72NO8P+H] 1+)	–	279.1 Å²	–
CC/C=C\C/C=C\C/C=C\C/C=C\C/C=C\CCCC(=O)OC[C@H](COP(=O)(O)OCCN)OC(=O)CCCCCCCCCCCCCCCCC [PE 20:5_18:0] (ion (formula + adduct): [C43H76NO8P+H] 1+)	281.4 Å²	–	–
CCCC/C=C\CCCCCCCCCCCC(=O)O[C@H](COC(=O)CCCCCCCCCCCCCCCCCCCCC)COP(=O)(O)OCCN [PE 22:0_18:1@] (ion (formula + adduct): [C45H88NO8P+H] 1+)	–	294.9 Å²	–
CCCCC/C=C\C/C=C\C/C=C\C/C=C\CCCCCC(=O)OC[C@H](COP(=O)(O)OCCN)OC(=O)CCCCCCCCCCCCCCCCC [PE 22:4_18:0] (ion (formula + adduct): [C45H82NO8P+H] 1+)	289.7 Å²	–	–
CC/C=C\C/C=C\C/C=C\C/C=C\C/C=C\C/C=C\CCC(=O)OC[C@H](COP(=O)(O)OCCN)OC(=O)CCCCCCC/C=C\CCCCCCCC [PE 22:6_18:1@] (ion (formula + adduct): [C45H76NO8P+H] 1+)	–	281.9 Å²	–
CC/C=C\C/C=C\C/C=C\C/C=C\C/C=C\C/C=C\CCC(=O)OC[C@H](COP(=O)(O)OCCN)OC(=O)CCCCCCCCCCCCCCCCCCC [PE 22:6_20:0] (ion (formula + adduct): [C47H82NO8P+H] 1+)	292.6 Å²	–	–
CC/C=C\C/C=C\C/C=C\C/C=C\C/C=C\C/C=C\CCC(=O)O[C@H](COCCCCCCCCCCCCCCCC)COP(=O)(O)OCCN [PE O- 16:0@_22:6] (ion (formula + adduct): [C43H76NO7P+H] 1+)	–	279.6 Å²	–
CCCCC/C=C\C/C=C\C/C=C\C/C=C\CCCC(=O)O[C@H](COCCCCCCCCCCCCCCCCCC)COP(=O)(O)OCCN [PE O- 18:0@_20:4] (ion (formula + adduct): [C43H80NO7P+H] 1+)	284 Å²	–	–
CCCCCCCC/C=C\CCCCCCCC(=O)O[C@H](CO/C=C\CCCCCCCCCCCCCC)COP(=O)(O)OCCN [PE P- 16:0@_18:1] (ion (formula + adduct): [C39H76NO7P+H] 1+)	274.1 Å²	274 Å²	274.1 Å²
CCCCCCCCC/C=C\CCCCCCCC(=O)O[C@H](CO/C=C\CCCCCCCCCCCCCC)COP(=O)(O)OCCN [PE P- 16:0@_19:1] (ion (formula + adduct): [C40H78NO7P+H] 1+)	–	277.5 Å²	–
CCCCCCCC/C=C\CCCCCCCCCC(=O)O[C@H](CO/C=C\CCCCCCCCCCCCCC)COP(=O)(O)OCCN [PE P- 16:0@_20:1] (ion (formula + adduct): [C41H80NO7P+H] 1+)	–	280.8 Å²	–
CCCCC/C=C\C/C=C\C/C=C\C/C=C\CCCC(=O)O[C@H](CO/C=C\CCCCCCCCCCCCCC)COP(=O)(O)OCCN [PE P- 16:0@_20:4] (ion (formula + adduct): [C41H74NO7P+H] 1+)	273.9 Å²	–	–
CC/C=C\C/C=C\C/C=C\C/C=C\C/C=C\C/C=C\CCC(=O)O[C@H](CO/C=C\CCCCCCCCCCCCCC)COP(=O)(O)OCCN [PE P- 16:0@_22:6] (ion (formula + adduct): [C43H74NO7P+H] 1+)	–	277.3 Å²	277.4 Å²

Further lines, results first:

TIMS collisional cross section (sample type: Liver)	TIMS collisional cross section (sample type: HeLa)	TIMS collisional cross section (sample type: plasma)	Compound
–	279.1 Å²	–	CCCCC/C=C\C/C=C\C/C=C\CCCCCCC(=O)OC[C@H](COP(=O)(O)OCCN)OC(=O)CCCCCCCCCCCCCCC [PE 20:3@_16:0] (ion (formula + adduct): [C41H76NO8P+H] 1+)
284.4 Å²	284.8 Å²	–	CC/C=C\C/C=C\C/C=C\C/C=C\C/C=C\C/C=C\CCC(=O)O[C@H](COC(=O)CCC/C=C\C/C=C\C/C=C\C/C=C\CCCCC)COP(=O)(O)OCCN [PE 20:4@_22:6] (ion (formula + adduct): [C47H74NO8P+H] 1+)
280 ± 0.42 Å²	279.1 Å²	–	CCCCC/C=C\C/C=C\C/C=C\C/C=C\CCCC(=O)OC[C@H](COP(=O)(O)OCCN)OC(=O)CCCCCCC/C=C\CCCCCCCC [PE 20:4_18:1] (ion (formula + adduct): [C43H76NO8P+H] 1+)
290.4 Å²	–	–	CCCCC/C=C\C/C=C\C/C=C\C/C=C\CCCC(=O)OC[C@H](COP(=O)(O)OCCN)OC(=O)CCCCCCCCCCCCCCCCCCC [PE 20:4_20:0] (ion (formula + adduct): [C45H82NO8P+H] 1+)
–	275 Å²	–	CC/C=C\C/C=C\C/C=C\C/C=C\C/C=C\C/C=C\CCC(=O)OC[C@H](COP(=O)(O)OCCN)OC(=O)CCCCCCC/C=C\CCCCCC [PE 22:6@_16:1] (ion (formula + adduct): [C43H72NO8P+H] 1+)
281.4 Å²	–	–	CC/C=C\C/C=C\C/C=C\C/C=C\C/C=C\C/C=C\CCC(=O)OC[C@H](COP(=O)(O)OCCN)OC(=O)CCCCCCC/C=C\CCCCCCCC [PE 22:6_18:1] (ion (formula + adduct): [C45H76NO8P+H] 1+)
–	286.7 Å²	–	CC/C=C\C/C=C\C/C=C\C/C=C\C/C=C\C/C=C\CCC(=O)OC[C@H](COP(=O)(O)OCCN)OC(=O)CC/C=C\C/C=C\C/C=C\C/C=C\C/C=C\C/C=C\CC [PE 22:6_22:6] (ion (formula + adduct): [C49H74NO8P+H] 1+)
–	276 Å²	–	CCCCCCCC/C=C\CCCCCCCC(=O)O[C@H](COCCCCCCCCCCCCCCCC)COP(=O)(O)OCCN [PE O- 16:0@_18:1] (ion (formula + adduct): [C39H78NO7P+H] 1+)
–	–	275.8 Å²	CCCCC/C=C\C/C=C\C/C=C\C/C=C\CCCC(=O)O[C@H](COCCCCCCCCCCCCCCCC)COP(=O)(O)OCCN [PE O- 16:0@_20:4] (ion (formula + adduct): [C41H76NO7P+H] 1+)
–	281.6 Å²	–	CCCCC/C=C\C/C=C\C/C=C\C/C=C\C/C=C\CCC(=O)O[C@H](COCCCCCCCCCCCCCCCC)COP(=O)(O)OCCN [PE O- 16:0@_22:5] (ion (formula + adduct): [C43H78NO7P+H] 1+)
270.5 Å²	270.7 Å²	270.6 Å²	CCCCC/C=C\C/C=C\CCCCCCCC(=O)O[C@H](CO/C=C\CCCCCCCCCCCCCC)COP(=O)(O)OCCN [PE P- 16:0@_18:2] (ion (formula + adduct): [C39H74NO7P+H] 1+)
–	275.1 Å²	276.2 Å²	CCCCC/C=C\C/C=C\C/C=C\CCCCCCC(=O)O[C@H](CO/C=C\CCCCCCCCCCCCCC)COP(=O)(O)OCCN [PE P- 16:0@_20:3] (ion (formula + adduct): [C41H76NO7P+H] 1+)
281.6 Å²	–	281.6 Å²	CCCCC/C=C\C/C=C\C/C=C\C/C=C\CCCCCC(=O)O[C@H](CO/C=C\CCCCCCCCCCCCCC)COP(=O)(O)OCCN [PE P- 16:0@_22:4] (ion (formula + adduct): [C43H78NO7P+H] 1+)
–	272 Å²	–	CCCCCCCCCCCCCC/C=C\OC[C@H](COP(=O)(O)OCCN)OC(=O)CCCCCCCCCCCCCCC [PE P- 16:0_16:0] (ion (formula + adduct): [C37H74NO7P+H] 1+)
–	–	281.4 Å²	CCCCCCCC/C=C\CCCCCCCC(=O)O[C@H](CO/C=C\CCCCCCCCCCCCCCCC)COP(=O)(O)OCCN [PE P- 18:0@_18:1] (ion (formula + adduct): [C41H80NO7P+H] 1+)
